The supplement of paper PMC10307832

Legend:
Experiment in all cases: relative viability (nuclei count vs DMSO), 5 days (fraction); higher = more cells survive
[1] = compound: CC(C)(C)c1nc(-c2cccc(NS(=O)(=O)c3c(F)cccc3F)c2F)c(-c2ccnc(N)n2)s1 [Dabrafenib] + CC1(C)CCC(c2ccc(Cl)cc2)=C(CN2CCN(c3ccc(C(=O)NS(=O)(=O)c4ccc(N[C@H](CCN5CCOCC5)CSc5ccccc5)c(S(=O)(=O)C(F)(F)F)c4)cc3)CC2)C1 [Navitoclax] (partner 0.5 µM)
Procedure, shortened: (§1)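 Lung cancer cell lines in 1536-well plates were dosed by pin tool the day after seeding, either with one drug alone or with a fixed anchor-drug dose plus five library-drug doses (not always all listed) in √10 steps. After 5 days, cells were fixed and their nuclei stained in one step (final 0.05% Triton X-100, 1% formaldehyde, 1 ug/ml Hoechst), then counted on 4× images. Relative viability is the nuclei count in treated wells divided by that in vehicle wells. Values are medians of duplicate plates.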

[2] = compound: CC(C)(C)c1nc(-c2cccc(NS(=O)(=O)c3c(F)cccc3F)c2F)c(-c2ccnc(N)n2)s1 [Dabrafenib] + CS(=O)(=O)CCNCc1ccc(-c2ccc3ncnc(Nc4ccc(OCc5cccc(F)c5)c(Cl)c4)c3c2)o1 [Lapatinib] (partner 2 µM)
Procedure, shortened: as §1

[3] = compound: NC(=O)c1ccc(N(C(N)=O)c2c(F)cccc2F)nc1-c1ccc(F)cc1F [VX-702] + CCNC(=O)c1noc(-c2cc(C(C)C)c(O)cc2O)c1-c1ccc(CN2CCOCC2)cc1 [Luminespib] (partner 0.01 µM)
Procedure, shortened: as §1

[4] = compound: NC(=O)c1ccc(N(C(N)=O)c2c(F)cccc2F)nc1-c1ccc(F)cc1F [VX-702] + Cc1nc(Nc2ncc(C(=O)Nc3c(C)cccc3Cl)s2)cc(N2CCN(CCO)CC2)n1 [Dasatinib] (partner 0.075 µM)
Procedure, shortened: as §1

Cell Line	relative viability ([1]; first compound 0.003 µM)	relative viability ([1]; first compound 0.009487 µM)	relative viability ([1]; first compound 0.03 µM)	relative viability ([1]; first compound 0.09487 µM)	relative viability ([1]; first compound 0.3 µM)	relative viability ([2]; first compound 0.003 µM)	relative viability ([2]; first compound 0.009487 µM)	relative viability ([2]; first compound 0.03 µM)	relative viability ([2]; first compound 0.09487 µM)	relative viability ([2]; first compound 0.3 µM)	relative viability ([3]; first compound 0.02 µM)	relative viability ([3]; first compound 0.2 µM)	relative viability ([3]; first compound 0.6325 µM)	relative viability ([3]; first compound 2 µM)	relative viability ([4]; first compound 0.02 µM)	relative viability ([4]; first compound 0.2 µM)	relative viability ([4]; first compound 0.6325 µM)	relative viability ([4]; first compound 2 µM)
NCI-H3122	1.04	1.01	1.06	0.991	1.08	1.05	1.08	1.04	0.959	1.08	0.0998	0.0746	0.0992	0.0951	0.921	0.84	0.752	0.789
NCI-H520	1.3	1.11	0.985	1.07	0.936	0.856	0.867	0.642	0.816	0.727	0.189	0.245	0.221	0.239	0.2	0.194	0.176	0.24
NCI-H1915	0.777	0.768	0.733	0.732	0.746	1.04	0.985	0.781	0.654	0.673	0.84	0.739	0.765	0.916	0.328	0.282	0.281	0.327
NCI-H1395		1.18	1.09	1.01	0.902		1.02	0.821	0.85	0.973	0.634	0.592	0.892	0.712	0.414	0.413	0.415	0.447
NCI-H2126	0.779	0.887	0.823	0.866	0.956	0.735	0.783	0.75	0.842	0.89	0.879	0.918	0.834	0.918	0.637	0.542	0.549	0.573
NCI-H596	0.733	0.996	0.764	1	0.921	0.994	1.11	0.814	1.04	1.05	1.05	1.1	1.01	1.11	0.672	0.579	0.56	0.57
NCI-H23		0.855	0.755	0.795	0.957		1.21	1.08	0.712	1.02	0.196	0.189	0.274	0.215	0.834	0.896	1.02	0.674
UMC-11	0.295	0.369	0.315	0.356	0.332	1.01	1.08	0.812	1.08	0.959	0.993	0.865	0.805	1.11	0.456	0.379	0.386	0.492
LK-2	1.09	0.985	0.662	0.938	0.936	0.885	1.02		0.902	0.985	0.199	0.175	0.175	0.178	0.269	0.329	0.219	0.288
COR-L23	0.948	0.997	0.908	0.927	0.894	0.984	1.1	0.92	0.874	0.913	0.749	0.719	0.688	0.761	0.523	0.475	0.559	0.673
NCI-H2405		0.697		0.734	0.73		0.804		0.853	0.937	0.659	0.641	0.799	0.73	0.259	0.207	0.228	0.193
HOP-62	0.89	1.01	1.02	0.718	1.02		1.07	0.822	0.889	0.784	0.926	0.899	0.916	0.962	0.741	0.702	0.674	0.735
NCI-H1975	1.2	1.11	0.954	1	1.18	0.914	0.858	0.881	0.84	0.786	0.198	0.275	0.233	0.246	0.365	0.344	0.402	0.382
NCI-H2085	1.15	1.14	1.16	1.1	1.09	0.694	0.821	0.58	0.74	0.784	0.479	0.462	0.477	0.41	0.209	0.339	0.207	0.27
NCI-H460	1.17	1.14	1.26	0.998	1.06	1.04	1.03	1.05	0.925	0.83	0.0333	0.0359	0.0358	0.0313	0.547	0.471	0.534	0.408
NCI-H1755	0.949	0.938	0.75	0.964	0.997	0.957	1.07	0.928	1	0.986	0.432	0.498	0.315	0.476	0.44	0.432	0.367	0.415
PC-14	1.01	0.977	1.05	1.01	1.06	0.282	0.418	0.363	0.317	0.364	0.138	0.171	0.158	0.175	0.337	0.323	0.295	0.188
201T	1.19	1.18	1.15	1.15	1.26	1.06	1.04	1.01	1.03	1.09	1	1.04	0.992	1.07	0.578	0.542	0.587	0.576

Cell Line	relative viability ([1]; first compound 0.003 µM)	relative viability ([1]; first compound 0.009487 µM)	relative viability ([1]; first compound 0.03 µM)	relative viability ([1]; first compound 0.09487 µM)	relative viability ([1]; first compound 0.3 µM)	relative viability ([2]; first compound 0.003 µM)	relative viability ([2]; first compound 0.009487 µM)	relative viability ([2]; first compound 0.03 µM)	relative viability ([2]; first compound 0.09487 µM)	relative viability ([2]; first compound 0.3 µM)	relative viability ([3]; first compound 0.02 µM)	relative viability ([3]; first compound 0.2 µM)	relative viability ([3]; first compound 0.6325 µM)	relative viability ([3]; first compound 2 µM)	relative viability ([4]; first compound 0.02 µM)	relative viability ([4]; first compound 0.2 µM)	relative viability ([4]; first compound 0.6325 µM)	relative viability ([4]; first compound 2 µM)
COR-L 105	0.73	0.856	0.649	0.875	0.744	0.273	0.367	0.3	0.375	0.426	0.688	0.715	0.78	0.91	0.315	0.402	0.313	0.3
A-427		0.954	0.91	0.803	0.888		1.06	0.878	0.793	1.05	0.715	0.919	0.823	0.774	0.689	0.698	0.796	0.584
NCI-H1734		0.835	0.703	0.766	0.85		1.02	0.629	0.747	0.785	0.225	0.228	0.173	0.203	0.51	0.413	0.445	0.371
NCI-H1944	0.954	1.03	0.971	0.968	0.899	0.835	0.924	0.613	0.898	0.788	0.73	0.713	0.771	0.718	0.226	0.212	0.221	0.169
LOU-NH91		0.848	0.741	0.719	0.664		0.789	0.683	0.772	0.802	0.355	0.3	0.346	0.292	0.572	0.553	0.576	0.364
NCI-H2009	1.11	1.02	1.06	0.909	0.841	0.311	1	0.872	0.606	0.484	1.13	1.07	1.19	1.3	0.35	0.401	0.429	0.452
NCI-H1792		0.61	0.608	0.568	0.557		0.881	0.813	0.792	0.912	0.331	0.355	0.376	0.523	0.556	0.781	0.714	0.714
HCC-15	0.728	0.787	0.734	0.694	0.833	0.788	0.809	0.891	0.739	0.732	0.26	0.295	0.288	0.349	0.667	0.501	0.602	0.639
NCI-H727		0.608	0.543	0.545	0.825		0.811	0.658	0.755	0.817	0.306	0.345	0.296	0.294	0.372	0.359	0.295	0.396
EPLC-272H		1.39	0.997	0.875	0.824		0.882	1	0.765	1.18	0.344	0.694	0.352	0.272	0.359	0.332	0.362	0.377
SW 1573	1.13	1.04	0.998	0.755	1.06	0.883	0.864	1.17	1.1	1.11	0.215	0.138	0.261	0.232	0.566	0.455	0.427	0.426
NCI-H1793	0.463	0.599	0.306	0.445	0.669	0.522	1	0.598	0.741	0.612	0.165	0.217	0.213	0.192	0.412	0.392	0.382	0.366
LXF-289	0.95	0.931	1.04	0.934	0.998	0.867	0.907	1.11	1	1.09	0.689	0.732	0.659	0.789	0.234	0.199	0.212	0.225
NCI-H2023	1.06	1.03	0.995	0.915	1.05	0.617	1.09	0.979	0.79	0.961	0.692	0.829	0.826	0.974	0.534	0.724	0.576	0.662
HARA	1.14	1.15	1.07	1.07	1.12	0.648	0.683	0.565	0.751	0.955	0.743	0.75	0.58	0.947	0.224	0.268	0.36	0.329
SK-LU-1	0.557	0.789	0.806	0.709	0.567		0.804	0.653	0.664	0.719	0.211	0.177	0.2	0.207	0.222	0.177	0.196	0.206
LCLC-97TM1		0.368	0.536		0.427		1.19	0.994		0.916	0.613	0.768	0.747	0.743	0.971	0.803	0.817	1.01
